Patent US10278395B2, “Functionalized environmentally benign nanoparticles” (North Carolina State University, priority 2013, dated 2019)

Tests used:
Pseudomonas aeruginosa = experiment: Qualitative antimicrobial test on P. aeruginosa (wet method, growth on plates); type: cell-based; details: for antimicrobial effect (in words): 30 minutes incubation time
Method: We performed quantitative antimicrobial tests on Gram-negative E. coli BL21 (DE3), a common human pathogen, and qualitative tests on Gram-negative P. aeruginosa, a human pathogen not susceptible to antimicrobial amines such as BPEI and […]. Therefore, any antimicrobial activity in the P. aeruginosa tests will predominantly stem from silver. The activity of each active agent was determined by comparing the number of colony forming units (CFU) of a reference plate with the CFU of a test plate as depicted in FIG. 20. The reduction of CFU on a test plate with antimicrobial agent is time dependent and concentration dependent. The schematic in FIG. 21 describes the wet method procedure that was followed for antimicrobial tests on both E. coli and P. aeruginosa. First, 200 μl of each active agent was placed into separate low retention centrifuge tubes. 100 μl of PBS buffer was added to each tube to baseline the ionic strength, and to adjust the pH value to 7. […] The samples were continuously vortexed. After the bacteria were exposed to the active agent for 1 minute, the survival rate of the bacteria was determined by plating 100 μl of each sample evenly distributed on Luria-Bertani agar plates. The procedure was repeated after 30 minutes of exposure time. After the plating procedure, the petri dishes were sealed and incubated upside-down for 48 h at 37° C.

E. coli BL21 (DE3) = experiment: Quantitative antimicrobial test on E. coli (wet method, CFU reduction efficiency); type: cell-based, Escherichia coli; details: for CFU reduction efficiency: 40 ppm
Method: We performed quantitative antimicrobial tests on Gram-negative E. coli BL21 (DE3), a common human pathogen, and qualitative tests on Gram-negative P. aeruginosa, a human pathogen not susceptible to antimicrobial amines such as BPEI and […]. Therefore, any antimicrobial activity in the P. aeruginosa tests will predominantly stem from silver. The activity of each active agent was determined by comparing the number of colony forming units (CFU) of a reference plate with the CFU of a test plate as depicted in FIG. 20. The reduction of CFU on a test plate with antimicrobial agent is time dependent and concentration dependent. […] We quantified by the antimicrobial reduction efficiency “E” with the following equation The schematic in FIG. 21 describes the wet method procedure that was followed for antimicrobial tests on both E. coli and P. aeruginosa. First, 200 μl of each active agent was placed into separate low retention centrifuge tubes. 100 μl of PBS buffer was added to each tube to baseline the ionic strength, and to adjust the pH value to 7. […] The samples were continuously vortexed. After the bacteria were exposed to the active agent for 1 minute, the survival rate of the bacteria was determined by plating 100 μl of each sample evenly distributed on Luria-Bertani agar plates. The procedure was repeated after 30 minutes of exposure time. After the plating procedure, the petri dishes were sealed and incubated upside-down for 48 h at 37° C.

In the case of `O=[N+]([O-])[O-].[Ag+]` [AgNO3, silver nitrate], the Pseudomonas aeruginosa growth (Pseudomonas aeruginosa; 1 min vortex time or contact time, 10 ppm) is reported as “Yes”, the Pseudomonas aeruginosa growth (Pseudomonas aeruginosa; 1 min vortex time or contact time, 20 ppm) is reported as “Yes” and the “antimicrobial effect (in words)” value (Pseudomonas aeruginosa; 20 ppm Ag) is reported as “no complete antimicrobial effect”. The “antimicrobial effect (in words)” value (Pseudomonas aeruginosa; concentration not given) was “no complete antimicrobial effect”, the Pseudomonas aeruginosa growth (Pseudomonas aeruginosa; 30 min vortex time or contact time, 10 ppm) was “Yes” and the Pseudomonas aeruginosa growth (Pseudomonas aeruginosa; 30 min vortex time or contact time, 20 ppm) was “Yes”. The “Ag concentration at which antimicrobial effects were exhibited” value (E. coli BL21 (DE3)) was 40 ppm Ag, the CFU reduction efficiency (E. coli BL21 (DE3); 1 min vortex time) was 53.33% and the CFU reduction efficiency (E. coli BL21 (DE3); 30 min vortex time) was 96.19%.
